According to PMC8954350, “Non-Canonical Cannabinoid Receptors with Distinct Binding and Signaling Properties in Prostate and Other Cancer Cell Types Mediate Cell Death” (International Journal of Molecular Sciences, 2022):

Key:
[1] = biological target: non-canonical CBRs expressed in C6-glioma; assay: Homologous receptor binding, C6-glioma; set-up: species or system mouse; settings: homologous competition with [^3H]WIN-55,212-2 (1 nM), read-out: affinity (KD)
Method: (§1) All binding reactions were conducted in triplicate, in a final volume of 1 mL, and, following mixing, were incubated for 20 min in a 37 °C water bath to achieve equilibrium. After incubation, reactions were terminated by rapid vacuum filtration and processed for radioactivity, as detailed in Section 4.5.1.
(§2) Curve-fitting and all statistical analyses were performed using GraphPad Prism® v8.0g (GraphPad Software, Inc.; San Diego, CA, USA). For qRT-PCR experiments, a one-way ANOVA, followed by Dunnett’s test as a post hoc test was utilized to compare fold change of PC-3 and DU-145 cancer cells to an arbitrary value of 1, set to the amount of mRNA transcribed from a human normal prostate control. For CBR screening studies, a one-sample t-test was performed to determine differences from 100% (e.g., to quantify compounds producing displacement), followed by a one-way ANOVA and Tukey’s post hoc tests to compare displacement produced by all drugs. […] For LDH release, ATP-dependent cell viability and JC-1 staining assays, drug effects were first analyzed by a one-sample t-test to determine differences from 0 or 100% (vehicle), followed by a one-way ANOVA and Dunnett’s post hoc test to compare all means. […]

[2] = test system: canonical human CB2Rs (CHO-hCB2); set-up: method as in PMID 34592231; settings: 1 μM ligand, 0.2 nM radioligand, CHO-hCB2 membranes; cited from earlier work
[3] = biological target: non-canonical CBRs expressed in PC-3; assay: Homologous receptor binding, PC-3; set-up: species or system human; settings: homologous competition with [^3H]WIN-55,212-2 (1 nM), read-out: affinity (KD)
Method: as §1, §2

**Q.** With `Cc1c(C(=O)c2cccc3ccccc23)c2cccc3c2n1[C@H](CN1CCOCC1)CO3` [WIN-55,212-2] as the compound, how does the Kd [1] read?
**A.** 16.1 ± 2.5 nM

**Q.** And the “displacement of [^3H]CP-55,940” value [2]?
**A.** produced near or complete displacement

**Q.** And the Kd [3]?
**A.** 8.4 ± 2.1 nM
